# Legend:
# Assay in all cases: relative viability (nuclei count vs DMSO), 5 days (fraction); higher = more cells survive
# [1] = compound: C[As](C)SC[C@H](NC(=O)CC[C@H](N)C(=O)O)C(=O)NCC(=O)O [Darinaparsin] + COc1cccc2cc(-c3nc([C@H]4CC[C@H](C(=O)O)CC4)n4ncnc(N)c34)[nH]c12 [OSI-027] (partner 0.5 µM)
# Procedure, shortened: (§1)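 Relative viability was taken as the ratio of nuclei in treated wells to nuclei in vehicle wells. Lung cancer cell lines in 1536-well plates received compounds by pin tool one day after seeding, either one drug alone or a fixed anchor-drug dose plus five library-drug doses (not always all listed) in √10 steps. Nuclei were counted on 4× images after 5 days of treatment, and values are medians of duplicate plates.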
# [2] = compound: CC1=C(C=C(C=C1)NC(=O)C2=CC(=CC=C2)C(C)(C)C#N)NC3=CC4=C(C=C3)N=CN(C4=O)C [AZ628] + COc1cc2c(Oc3ccc(NC(=O)C4(C(=O)Nc5ccc(F)cc5)CC4)cc3F)ccnc2cc1OCCCN1CCOCC1 [Foretinib] (partner 0.25 µM)
# Procedure, shortened: as §1
# [3] = compound: C1CC2=C(C1)C=C(C=C2)OC3=NC(=C4C(=N3)N(C=N4)CC5=CC=C(C=C5)C6=CC=CC=C6)N[C@@H](CC7=CC=CC=C7)CO [QS11] + Nc1nc2[nH]cc(CCc3ccc(C(=O)N[C@@H](CCC(=O)O)C(=O)O)cc3)c2c(=O)[nH]1 [Pemetrexed] (partner 0.2 µM)
# Procedure, shortened: as §1
# [4] = compound: C1CC2=C(C1)C=C(C=C2)OC3=NC(=C4C(=N3)N(C=N4)CC5=CC=C(C=C5)C6=CC=CC=C6)N[C@@H](CC7=CC=CC=C7)CO [QS11] + CCNC(=O)c1noc(-c2cc(C(C)C)c(O)cc2O)c1-c1ccc(CN2CCOCC2)cc1 [Luminespib] (partner 0.01 µM)
# Procedure, shortened: as §1
Cell Line,relative viability ([1]; first compound 0.08 µM),relative viability ([1]; first compound 0.8 µM),relative viability ([1]; first compound 2.53 µM),relative viability ([1]; first compound 8 µM),relative viability ([2]; first compound 0.08 µM),relative viability ([2]; first compound 0.253 µM),relative viability ([2]; first compound 0.8 µM),relative viability ([2]; first compound 2.53 µM),relative viability ([2]; first compound 8 µM),relative viability ([3]; first compound 0.08 µM),relative viability ([3]; first compound 0.253 µM),relative viability ([3]; first compound 0.8 µM),relative viability ([3]; first compound 2.53 µM),relative viability ([3]; first compound 8 µM),relative viability ([4]; first compound 0.08 µM),relative viability ([4]; first compound 0.253 µM),relative viability ([4]; first compound 0.8 µM),relative viability ([4]; first compound 2.53 µM),relative viability ([4]; first compound 8 µM)
NCI-H1755,0.725,0.691,0.686,0.841,0.905,0.929,0.858,0.965,0.867,0.554,0.443,0.39,0.446,0.355,0.403,0.406,0.289,0.422,0.412
LU99A,0.311,0.298,0.337,0.271,0.862,0.767,0.833,0.861,0.431,0.169,0.172,0.173,0.169,0.168,0.238,0.269,0.284,0.273,0.335
HCC-44,0.511,0.514,0.454,0.378,–,–,–,–,–,0.72,0.581,0.416,0.675,0.659,1.08,1.18,0.805,0.937,1.24
EBC-1,–,–,–,–,0.117,0.11,0.111,0.0929,0.0846,–,–,–,–,–,–,–,–,–,–
NCI-H647,0.625,0.59,0.545,1.08,1.02,1.28,1.36,1.29,1.05,0.2,0.146,0.155,0.159,0.202,0.155,0.321,0.118,0.171,0.141

# From the supplement of paper PMC10307832
